Experimental data from patent US6140333A, “N-acyl cyclic amine derivatives” (priority 1998, dated 2000).

Experiments:
[1] = biological target: T1, m3 muscarinic acetylcholine receptor (Homo sapiens, UniProt P20309); assay: biochemical; type: binding; conditions: for Ki: CHO cells expressing m3, 0.2 nM [3H]-N-methylscopolamine, pH 7.4, 120 min, room temperature; for m2/m3 (ratio of Ki): selectivity m2 over m3, binding
T1 construct: purchased Receptor Biology Inc; host or cells: CHO cells
Experimental: (§1) These tests were performed according to a modification of the method of Hargreaves et al. (Br. J. Pharmacol. 107: pp. 494-501, 1992). Thus, CHO cells expressing m2 and m3 muscarinic acetylcholine receptors (Receptor Biology Inc.) were incubated with 0.2 nM [^3 H]-N-methylscopolamine (84Ci/mmol, New England Nuclear, Inc.) and each compound of the present invention to be tested in 0.5 ml of 50 mM tris-HCl--10 mM MgCl2 --1 mM EDTA (pH 7.4) for 120 minutes at room temperature (about 20 to 25° C.), followed by suction filtration with a glass filter (Uni-Filter plate GF/C; Packard Instruments Co., Ind.) and washing four times with 1 ml of ice-cold Tris-HCl buffer. After the filter was dried for 1 hour at 50° C., a scintillator (Miroscinti 0; Packard Instruments Co., Inc.) was added, and the radioactivity of [^3 H]-N-methylscopolamine adsorbed by the filter was counted by a liquid scintillation counter (TopCount™; Packard Instruments Co., Inc.). Non-specific binding of [^3 H]-N-methylscopolamine was measured in the presence of 1 μM N-methylscopolamine, which was added. According to the method of Cheng and Prusoff (Biochem. Pharmacol. 22: pp. 3099-3108, 1973), the binding affinity (Ki value) of the compound of the present invention for muscarinic receptors was calculated from the concentration (IC50) of the test compound which achieved 50% inhibition of the binding of [^3 H]-N-methylscopolamine, labeled ligand.

[2] = biological target: T2, m2 muscarinic acetylcholine receptor (Homo sapiens, UniProt P08172); assay: biochemical; type: binding; conditions: CHO cells expressing m2; 0.2 nM [3H]-N-methylscopolamine, pH 7.4, 120 min, room temperature
T2 construct: purchased Receptor Biology Inc; host or cells: CHO cells
T2 sequence (P08172 1-466): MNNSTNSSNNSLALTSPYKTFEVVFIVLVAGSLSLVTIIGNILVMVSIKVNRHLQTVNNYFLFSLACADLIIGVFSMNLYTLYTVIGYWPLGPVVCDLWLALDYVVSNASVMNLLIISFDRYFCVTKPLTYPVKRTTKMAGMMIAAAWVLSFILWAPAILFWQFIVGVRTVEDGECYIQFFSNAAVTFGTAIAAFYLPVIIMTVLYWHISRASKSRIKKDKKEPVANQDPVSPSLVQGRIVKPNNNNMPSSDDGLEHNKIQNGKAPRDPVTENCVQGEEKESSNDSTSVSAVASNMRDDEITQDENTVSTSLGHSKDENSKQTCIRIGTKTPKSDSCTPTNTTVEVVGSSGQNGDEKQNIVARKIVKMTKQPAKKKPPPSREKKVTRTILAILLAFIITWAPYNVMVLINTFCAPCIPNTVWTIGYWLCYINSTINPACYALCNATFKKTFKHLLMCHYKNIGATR
Experimental: as §1

[3] = biological target: T3, M3 receptor (trachea) (Rattus norvegicus, UniProt P08483); assay: Antagonism to airway M3 receptor in isolated rat trachea (carbachol dose-response); conditions: for Kb: isolated rat trachea, carbachol, 32° C.; for M2/M3 (ratio of KB): selectivity right atrium M2 over trachea M3, in vitro
T3 construct: the trachea was isolated; from tissue; host or cells: isolated trachea of male SD rat
T3 sequence (P08483 whole entry): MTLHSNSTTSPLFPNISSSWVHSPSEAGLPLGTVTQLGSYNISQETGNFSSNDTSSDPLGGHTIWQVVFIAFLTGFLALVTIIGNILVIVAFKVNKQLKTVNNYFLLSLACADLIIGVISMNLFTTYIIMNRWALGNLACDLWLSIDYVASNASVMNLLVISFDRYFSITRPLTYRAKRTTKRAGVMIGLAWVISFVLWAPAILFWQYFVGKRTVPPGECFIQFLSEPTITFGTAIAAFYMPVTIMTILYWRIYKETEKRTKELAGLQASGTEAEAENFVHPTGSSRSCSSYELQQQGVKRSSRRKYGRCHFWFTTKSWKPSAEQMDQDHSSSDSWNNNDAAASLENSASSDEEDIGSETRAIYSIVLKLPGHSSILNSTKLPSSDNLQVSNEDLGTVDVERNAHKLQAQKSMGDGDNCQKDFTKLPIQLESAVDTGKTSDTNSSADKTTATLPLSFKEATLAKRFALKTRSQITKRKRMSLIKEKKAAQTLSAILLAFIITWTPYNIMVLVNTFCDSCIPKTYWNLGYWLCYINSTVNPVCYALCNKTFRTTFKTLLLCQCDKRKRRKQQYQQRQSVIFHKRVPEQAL
Experimental: 2) Tests for Antagonism to the Airway M3 Receptor in an Isolated Rat Right Trachea
These tests were performed according to a conventional method. A male SD strain rat (weighing 300-500 g) was killed by exsanguination, and the trachea was isolated. Annular segments (2 mm wide) were cut out from the trachea and cut transversely at the anterior cartilage part to make an open ring preparation. The preparation was suspended in a Magnus tube filled with 5 ml of Krebs-Hanseleit solution (gassed with 95% O2 -5% CO2 and kept at 32° C.) with an initial tension of 1.0 g and a resting tension of 0.6 g. The tension of the preparation was recorded isometrically. After the preparation was equilibrated for an hour, the preparation was caused to contract twice with 10^-4 M carbachol, and the second contraction induced by carbachol was used as the reference contraction. After the preparation was washed with fresh solution to be restored to the base line, a test compound was administered thereto (or no treatment was given). Ten minutes later, carbachol (10^-8 to 10^-3 M) was cumulatively administered in three-fold increasing doses to obtain a dose-response curve. The dose-response curve was plotted by expressing responses as percentages based on the reference contraction of the preparation as 100%. The antagonistic potency (KB value) of the test compound was determined from the degree of shift of the dose-response curve obtained by treatment with the test compound.

[4] = biological target: T4, M2 receptor (right atrium) (Rattus norvegicus, UniProt P10980); assay: Antagonism to M2 receptor in isolated rat right atrium (carbachol dose-response); conditions: 32° C.
T4 construct: the right atrium was isolated; from tissue; host or cells: isolated right atrium of male SD rat
T4 sequence (P10980 1-466): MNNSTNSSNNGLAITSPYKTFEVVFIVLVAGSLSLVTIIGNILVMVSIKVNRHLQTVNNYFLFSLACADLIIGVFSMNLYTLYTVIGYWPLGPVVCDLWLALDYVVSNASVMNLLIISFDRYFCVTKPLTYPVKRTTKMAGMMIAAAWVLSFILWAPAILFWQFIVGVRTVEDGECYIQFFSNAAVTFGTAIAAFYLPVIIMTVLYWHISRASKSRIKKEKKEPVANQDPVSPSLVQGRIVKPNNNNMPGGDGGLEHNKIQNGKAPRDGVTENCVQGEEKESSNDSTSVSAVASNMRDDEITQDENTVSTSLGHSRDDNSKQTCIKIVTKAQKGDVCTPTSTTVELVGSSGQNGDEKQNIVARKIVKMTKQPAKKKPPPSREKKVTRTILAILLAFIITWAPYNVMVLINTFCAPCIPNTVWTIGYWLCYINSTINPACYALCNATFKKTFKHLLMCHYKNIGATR
Experimental: 1) Tests for Antagonism to M2 Receptor in an Isolated Rat Right Atrium
These tests were performed according to a conventional method. A male SD strain rat (weighing 300-500 g) was killed by exsanguination, and the right atrium was isolated. This preparation was isometrically suspended in organ bath filled with 20 ml of Krebs-Hanseleit solution (gassed with 95% O2 -5% CO2 and kept at 32° C.) with an initial tension of 0.5 g. The heart rate was recorded with a heart rate counter. After the preparation was equilibrated for 30 minutes, carbachol (10^-9 to 10^-6 M) was cumulatively administered in three-fold increasing doses. Thus, a decrease in heart rate was measured to obtain a dose-response curve for the control experiment. After the preparation was washed with fresh solution to restore the heart rate, a test compound was administered thereto. Ten minutes later, carbachol was cumulatively administered again. Responses to carbachol were expressed as percentages based on the heart rate before the administration of carbachol as 100%. The antagonistic potency (KB value) of the test compound was determined from the degree of shift of the dose-response curve obtained by treatment with individual test compound of the present invention.

[5] = tested on: muscarinic M3 receptor; assay: Bronchodilation in dogs (oral administration), methacholine provocation test; type: in vivo, dog (beagle); conditions: 0.1 mg/kg, P.O., 4 hrs later
Experimental: Tests for Antagonism Against Muscarinic M3 Receptor (in vivo)
Tests for Bronchodilation in Dogs (oral administration)
Male beagles of 12 to 24 months of age, weight 10 to 15 kg, were anesthetized with pentobarbital (30 mg/kg, iv.), and the trachea of each dog was intubated. The sensitivity of the airway (methacoline reaction threshold value) was measured at least twice at two weeks' intervals by a methacoline provocation test, and dogs manifesting a reproducible methacoline reaction threshold value^1) were selected. To those dogs whose methacholine reaction threshold value was established, the test compound was orally administered (0.1 mg/kg). Four hours after the administration, a methacoline provocation test was again conducted, and the methacholine reaction threshold value^2) after the administration of the test compound was measured. The brochodilator activity of the test compound was determined by the following equation: [formula]
The methacholine provocation test was conducted using an Astograph TCK-6100H model (Chest). Methacholine chloride was used as brochoconstritor, which was diluted with isotonic sodium chloride solution in 10 grade concentration levels from 40,000 μg/ml to 20,000, 10,000, 5,000, 2,500, 1,250, 625, 312.5, 156 and 78 μg/ml. The test animals were caused to inhale these methacoline aerosols for 1 min. at a time, starting with the lowest concentration upward, and the respiratory resistance was continuously recorded. The concentration of methacoline at which the respiratory resistance reached a value twice its initial level was deemed to be the methacholine threshold value.

T1 sequence (P20309 whole entry): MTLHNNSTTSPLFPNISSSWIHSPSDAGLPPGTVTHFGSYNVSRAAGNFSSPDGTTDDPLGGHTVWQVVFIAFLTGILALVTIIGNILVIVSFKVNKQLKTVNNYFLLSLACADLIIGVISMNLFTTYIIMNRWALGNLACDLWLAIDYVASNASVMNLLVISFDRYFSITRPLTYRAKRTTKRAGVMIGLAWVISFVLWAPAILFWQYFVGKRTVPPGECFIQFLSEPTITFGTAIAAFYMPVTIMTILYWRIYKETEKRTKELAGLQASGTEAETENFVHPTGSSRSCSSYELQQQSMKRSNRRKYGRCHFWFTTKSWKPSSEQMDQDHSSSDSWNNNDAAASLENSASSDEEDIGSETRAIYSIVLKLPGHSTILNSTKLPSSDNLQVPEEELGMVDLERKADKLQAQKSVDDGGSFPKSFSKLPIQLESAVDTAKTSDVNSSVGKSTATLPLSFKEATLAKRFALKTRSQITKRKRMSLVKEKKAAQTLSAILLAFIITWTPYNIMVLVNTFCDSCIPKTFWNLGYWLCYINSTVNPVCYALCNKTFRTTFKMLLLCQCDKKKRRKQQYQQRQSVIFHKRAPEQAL

Compound	Ki [1]	m2/m3 (ratio of Ki) [1]	Ki [2]	Kb [3]	M2/M3 (ratio of KB) [3]	Kb [4]	Methacoline Provocation Test Shift value [5]
O=C(N1CC2=C(CNC2)C1)[C@](O)(c1ccccc1)[C@@H]1CCC(F)(F)C1 [Example 35, 3-{(2R)-2-((1R)-3,3-difluorocyclopentyl)-2-hydroxy-2-phenylacetyl}-3,7-diazabicyclo[3.3.0]oct-1(5)-ene]	4.2 nM	160	670 nM	8 nM	300	2400 nM	5.8
Cl.NC1CCN(C(=O)[C@](O)(c2ccccc2)[C@@H]2CCC(F)(F)C2)CC1 [Example 1, 4-Amino-1-{(2R)-2-((1R)-3,3-difluorocyclopentyl)-2-hydroxy-2-Phenylacetyl}piperidine monohydrochloride]				20 nM	37	730 nM	
O=C(N1C[C@H]2CCNCC[C@H]2C1)[C@](O)(c1ccccc1)[C@@H]1CCC(F)(F)C1 [Example 29, 9-{(2R)-2-((1R)-3,3-difluorocyclopentyl)-2-hydroxy-2-phenylacetyl}-cis-4,9-diazabicyclo[5.3.0]decane]	1.2 nM	190	230 nM	1.6 nM	140	230 nM	22
CC1NCCC12CCN(C(=O)[C@](O)(c1ccccc1)[C@@H]1CCC(F)(F)C1)CC2 (single isomer, unassigned) [Example 43 ((IS*)-substance), (1R*)- and (1S*)-8-{(2R)-2-((1R)-3,3-difluorocyclopentyl)-2-hydroxy-2-phenylacetyl}-1-methyl-2,8-diazaspiro[4.5]decane]	0.26 nM	80	21 nM				22
O=C(N1CCC2(CCNC2)CC1)[C@](O)(c1ccccc1)[C@@H]1CCC(F)(F)C1 [Example 26, 8-{(2R)-2-((1R)-3,3-difluorocyclopentyl)-2-hydroxy-2-phenylacetyl}-2,8-diazaspiro[4.5]decane]	0.44 nM	60	27 nM	0.83 nM	75	75 nM	7.1
